# Data reported in patent US8962576B2, “Compositions and method for improving endothelial function and cardiovascular health” (Natreon, Inc., priority 2012, dated 2015).
# Values joined by “and” are separate entries in the source; they are usually repeats but may differ in a detail not shown here. Equal entries are not always repeated.
# Key:
# Assay type in all cases: in vivo, human
# Type 2 Diabetic Subjects [1] = test: Other cardiovascular pharmacodynamic parameters (AIx, SEVR, ABI, PWV, CO, SVR), study (c); settings: CAPROS 250 mg twice daily, Atorvastatin 10 mg daily, n = 20
# Experimental: The augmentation index (AIx, defined as augmented pressure divided by pulse pressure and expressed as a percentage) is thus a composite measure of the magnitude of wave reflections and arterial stiffness, which affects timing of wave reflections. Because the augmentation index is influenced by changes in heart rate (HR), it is also accordingly corrected (AIx@75). The augmentation index was measured by using a validated, commercially available system (SphygmoCor; AtCor Medical, Sydney, Australia) that employs the principle of applanation tonometry and appropriate acquisition and analysis software for noninvasive recording and analysis of the arterial pulse. […] Waveforms of radial pressure were calibrated according to sphygmomanometric systolic and diastolic pressure measured in the brachial artery because there is practically negligible pressure pulse amplification between the brachial and the radial artery.
# The subendocardial viability index, an indicator of myocardial workload and perfusion (O2 supply vs. demand) was calculated as the ratio of the integral of diastolic pressure and time to the integral of systolic pressure and time.
# Brachial-ankle pulse wave velocity (baPWV) is also used to evaluate arterial stiffness. Pulse wave velocity is the speed at which the blood pressure pulse travels from the heart to the peripheral artery after blood rushes out during contraction. It is mainly used to evaluate stiffness of the artery wall. Pulse wave velocity increases with stiffness of the arteries. The PTT (Pulse Transit Time) of each segment is calculated from the waveform taken from each sensor. Pulse wave velocity is defined in Equation (1): […]
# Brachial Ankle Pulse Wave Velocity (baPWV), Ankle Brachial Index (ABI) and Blood Pressure (BP) were measured using an automatic waveform analyzer (model BP-203 RPE; Colin Medical Technology, Komaki, Japan). Measurements were taken with patients lying in a supine position after 5 minutes of rest in that position. Occlusion and monitoring cuffs were placed snugly around both sites of the upper and lower extremities of patients. Pressure waveforms of the brachial and tibial arteries were then recorded simultaneously by an oscillometric method. Measurement of right and left baPWV was obtained for an average of 10 seconds. The average of left and right baPWV will be used for analysis.
# Recording of cardiac output (CO) was performed using L&T Nivomon monitor (Larsen & Toubro Ltd., Mumbai, India). Noninvasive continuous cardiac output monitor with peripheral blood flow measurement option. This equipment is very useful and versatile. It calculates many cardiac parameters directly including cardiac output. It works on the features of impedance plethysmography principle and has tetrapolar configuration. The advantage is that this equipment directly calculates the cardiac output along with other parameters using the pulse wave.
# (§1) After screening, all the eligible subjects were randomized to receive either one of the four treatments for a duration of 12 weeks, as follows.
# The clinical measurements and pharmacodynamic tests were performed as described above in studies (a) or (b), unless otherwise stated.
# Type 2 Diabetic Subjects [2] = test: Biomarkers of oxidative stress (NO, MDA, Glutathione), study (a); settings: Sensoril or Capros 250 mg twice daily, Atorvastatin 10 mg at night; for Glutathione / MDA / NO: n = 10
# Experimental: […]. (April 2004) 36(2): 76-79. Glutathione levels were determined as described in G. L. Ellman, Arch. Biochem. Biophys. (1959) 82: 70-77 (original determination). Nitric oxide levels were estimated spectrophotometrically as described in Miranda, et al., “A Rapid, Simple Spectrophotometric Method for Simultaneous Detection of Nitrate and Nitrite,” NITRIC OXIDE: Biology and Chemistry (2001) Vol. 5, No. 1, pp. 62-71.
# Type 2 Diabetic Subjects [3] = test: Biomarkers of oxidative stress and hsCRP, study (c); settings: CAPROS 250 mg twice daily, Atorvastatin 10 mg daily, n = 20
# Experimental: Malondialdehyde (MDA) levels were determined as described in Vidyasagar, et al., “Oxidative stress and antioxidant status in acute organophosphorous insecticide poisoning,” Indian J. Pharmacol. (April 2004) 36(2): 76-79. Glutathione levels were determined as described in G. L. Ellman, Arch. Biochem. Biophys. (1959) 82: 70-77 (original determination). Nitric oxide levels were estimated spectrophotometrically as described in Miranda, et al., “A Rapid, Simple Spectrophotometric Method for Simultaneous Detection of Nitrate and Nitrite,” NITRIC OXIDE: Biology and Chemistry (2001) Vol. 5, No. 1, pp. 62-71.
# as §1
# Nitric oxide, MDA, Glutathione (GSH) and levels thereof were estimated spectrophotometrically as described above, and HsCRP (high sensitivity C-reactive protein) by ELISA method.
# Type 2 Diabetic Subjects [4] = test: Lipid profile, study (c); settings: CAPROS 250 mg twice daily, Atorvastatin 10 mg daily, n = 20
# From the text: as §1
# All the subjects had undergone complete physical examination, safety lab evaluations at baseline and at the end of the treatment. Samples were collected after an overnight fast of 12 hrs after the last dose of medication for determination of haemoglobin, HbA1c, blood urea and serum creatinine, liver function test, and lipid profile (Total cholesterol (TC), High density lipoprotein cholesterol (HDL-C), low density lipoprotein cholesterol (LDL-C)), and results obtained using appropriate standard techniques.
compound,measurement,setting,value
CC(C)c1c(C(=O)Nc2ccccc2)c(-c2ccccc2)c(-c2ccc(F)cc2)n1CC[C@@H](O)C[C@@H](O)CC(=O)O [Atorvastatin],Absolute change in ABI,Type 2 Diabetic Subjects [1]; 12 weeks,0.08 ± 0.06
same,Absolute change in AIx,Type 2 Diabetic Subjects [1]; 12 weeks,−12.14 ± 5.44%
same,Absolute change in CO,Type 2 Diabetic Subjects [1]; 12 weeks,0.84 ± 0.43 lt/min
same,Absolute change in PWV,Type 2 Diabetic Subjects [1]; 12 weeks,−175.5 ± 110.82 cm/s
same,Absolute change in SEVR,Type 2 Diabetic Subjects [1]; 12 weeks,11.09 ± 6.51%
same,Absolute change in SVR,Type 2 Diabetic Subjects [1]; 12 weeks,−182.3 ± 109.61 dyne · sec/cm^5
same,ABI,"Type 2 Diabetic Subjects [1]; Post TT, 12 weeks",1.10 ± 0.04$
same,AIx,"Type 2 Diabetic Subjects [1]; Post TT, 12 weeks",123.4 ± 13.4$ %
same,CO,"Type 2 Diabetic Subjects [1]; Post TT, 12 weeks",5.15 ± 0.47$ lt/min
same,PWV,"Type 2 Diabetic Subjects [1]; Post TT, 12 weeks",1346 ± 147.6$ cm/s
same,SEVR,"Type 2 Diabetic Subjects [1]; Post TT, 12 weeks",146.5 ± 16.09$ %
same,SVR (Systemic Vascular Resistance),"Type 2 Diabetic Subjects [1]; Post TT, 12 weeks",1336.95 ± 251.3$ dyne · sec/cm^5
same,ABI,Type 2 Diabetic Subjects [1]; Pre TT,1.02 ± 0.07
same,AIx,Type 2 Diabetic Subjects [1]; Pre TT,135.5 ± 14.71%
same,CO,Type 2 Diabetic Subjects [1]; Pre TT,4.13 ± 0.65 lt/min
same,PWV,Type 2 Diabetic Subjects [1]; Pre TT,1522 ± 127.7 cm/s
same,SEVR,Type 2 Diabetic Subjects [1]; Pre TT,135.4 ± 19.11%
same,SVR (Systemic Vascular Resistance),Type 2 Diabetic Subjects [1]; Pre TT,1519.25 ± 296.3 dyne · sec/cm^5
same,Glutathione,"Type 2 Diabetic Subjects [2]; Post treatment, 12 weeks",721.6 ± 116.9 µmol/L
same,MDA,"Type 2 Diabetic Subjects [2]; Post treatment, 12 weeks",2.13 ± 0.48 nmol/mL
same,NO,"Type 2 Diabetic Subjects [2]; Post treatment, 12 weeks",68.89 ± 11.54 µmol/L
same,Glutathione,Type 2 Diabetic Subjects [2]; Pre treatment,530.8 ± 168.4 µmol/L
same,MDA,Type 2 Diabetic Subjects [2]; Pre treatment,3.48 ± 0.73 nmol/mL
same,NO,Type 2 Diabetic Subjects [2]; Pre treatment,42.24 ± 6.771 µmol/L
same,Mean % change in Glutathione,Type 2 Diabetic Subjects [2]; after 12 weeks of treatment,51.77% and 51.77 ± 62.72%
same,Mean % change in MDA,Type 2 Diabetic Subjects [2]; after 12 weeks of treatment,−38.05% and −38.05 ± 10.43%
same,Mean % change in NO,Type 2 Diabetic Subjects [2]; after 12 weeks of treatment,64.71% and 64.71 ± 27.25%
same,Absolute change in MDA,Type 2 Diabetic Subjects [3]; 12 weeks,−1.17 ± 0.75 nM/ml
same,Absolute change in NO,Type 2 Diabetic Subjects [3]; 12 weeks,28.45 ± 12.30 μM/L
same,Absolute change in hsCRP,Type 2 Diabetic Subjects [3]; 12 weeks,−2.10 ± 1.26 Mg/L
same,Mean percentage change in MDA,Type 2 Diabetic Subjects [3]; 12 weeks,−30.55 ± 19.81%
same,Mean percentage change in NO,Type 2 Diabetic Subjects [3]; 12 weeks,88.44 ± 50.97%
same,Mean percentage change in hsCRP,Type 2 Diabetic Subjects [3]; 12 weeks,−64.90 ± 26.99%
same,MDA,"Type 2 Diabetic Subjects [3]; Post TT, 12 weeks",2.37 ± 0.59 nM/ml
same,NO,"Type 2 Diabetic Subjects [3]; Post TT, 12 weeks",63.69 ± 15.04 μM/L
same,hsCRP,"Type 2 Diabetic Subjects [3]; Post TT, 12 weeks",0.97 ± 0.78 Mg/L
same,MDA,Type 2 Diabetic Subjects [3]; Pre TT,3.54 ± 0.85 nM/ml
same,NO,Type 2 Diabetic Subjects [3]; Pre TT,35.24 ± 9.71 μM/L
same,hsCRP,Type 2 Diabetic Subjects [3]; Pre TT,3.08 ± 1.38 Mg/L
same,Absolute change in HDL-C,Type 2 Diabetic Subjects [4]; 12 weeks,7.52 ± 7.00 mg/dL
same,Absolute change in LDL-C,Type 2 Diabetic Subjects [4]; 12 weeks,-47.48 ± 24.19 mg/dL
same,Absolute change in Total Cholesterol,Type 2 Diabetic Subjects [4]; 12 weeks,-48.11 ± 36.87 mg/dL
same,Absolute change in Triglycerides,Type 2 Diabetic Subjects [4]; 12 weeks,-48.54 ± 50.09 mg/dL
same,Absolute change in VLDL-C,Type 2 Diabetic Subjects [4]; 12 weeks,-5.30 ± 4.70 mg/dL
same,Mean percentage change in HDL-C,Type 2 Diabetic Subjects [4]; 12 weeks,21.16 ± 20.49%
same,Mean percentage change in LDL-C,Type 2 Diabetic Subjects [4]; 12 weeks,−35.00 ± 14.34%
same,Mean percentage change in Total Cholesterol,Type 2 Diabetic Subjects [4]; 12 weeks,−24.68 ± 14.38%
same,Mean percentage change in Triglycerides,Type 2 Diabetic Subjects [4]; 12 weeks,−25.02 ± 25.34%
same,Mean percentage change in VLDL-C,Type 2 Diabetic Subjects [4]; 12 weeks,−18.24 ± 17.10%
same,HDL-C,"Type 2 Diabetic Subjects [4]; Post TT, 12 weeks",47.95 ± 5.34 mg/dL
same,LDL-C,"Type 2 Diabetic Subjects [4]; Post TT, 12 weeks",78.50 ± 16.71 mg/dL
same,Total Cholesterol,"Type 2 Diabetic Subjects [4]; Post TT, 12 weeks",135.6 ± 26.94 mg/dL
same,Triglycerides,"Type 2 Diabetic Subjects [4]; Post TT, 12 weeks",106.5 ± 30.79 mg/dL
same,VLDL-C,"Type 2 Diabetic Subjects [4]; Post TT, 12 weeks",19.90 ± 3.64 mg/dL
same,HDL-C,Type 2 Diabetic Subjects [4]; Pre TT,40.44 ± 6.76 mg/dL
same,LDL-C,Type 2 Diabetic Subjects [4]; Pre TT,126.00 ± 34.90 mg/dL
same,Total Cholesterol,Type 2 Diabetic Subjects [4]; Pre TT,183.7 ± 37.41 mg/dL
same,Triglycerides,Type 2 Diabetic Subjects [4]; Pre TT,155.0 ± 56.51 mg/dL
same,VLDL-C,Type 2 Diabetic Subjects [4]; Pre TT,25.20 ± 6.57 mg/dL
